Source: patent US11179412B2, “Methods of treating conditions involving elevated inflammatory response” (University of Pittsburgh—Of the Commonwealth System of …, priority 2017, dated 2021)
“Also recorded” adds a separate entry of the source.

Legend:
[1] = system: STING signaling (TBK1, IRF3, p65, ALK, EGFR, AKT phosphorylation) in iBMDMs; experiment: Western blot of STING pathway protein phosphorylation, iBMDMs; assay type: cell-based, mouse
Procedure: For immunoblotting, cells were lysed in Cell Lysis Buffer (#9803, Cell Signaling Technology) with protease inhibitor cocktail (Promega), phosphatase inhibitor cocktail (Sigma), and 1 mM Na3VO4 (70). Cleared lysates were resolved by SDS-PAGE (#3450124, Bio-Rad) and then transferred onto PVDF membranes (#1704273, Bio-Rad). The membranes were blocked with Tris-buffered saline Tween 20 (TBST) containing 5% skim milk for 1 h at room temperature and then incubated with the indicated primary antibodies (1:1000-1:5000) overnight at 4° C. After being washed with TBST, the membranes were incubated with an HRP-linked anti-mouse IgG secondary antibody (#7076, Cell Signaling Technology) or HRP-linked anti-rabbit IgG secondary antibody (#7074, Cell Signaling Technology) for 1 h at room temperature. The membranes were washed three times in TBST and then visualized and analyzed with a ChemiDoc Touch Imaging System (#1708370, Bio-Rad). The intensities of bands were analyzed with Image Lab software.

[2] = system: STING activation (IFNβ release) in iBMDMs; experiment: IFNβ release ELISA after STING ligand (or LPS) stimulation, iBMDMs; assay type: cell-based, mouse
Summary of the method: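 iBMDMs were stimulated with a STING ligand such as 3′3′-cGAMP, or with LPS. Secreted IFNβ in culture medium was measured by commercial mouse or human IFNβ ELISA.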

[3] = system: receptor tyrosine kinase phosphorylation in iBMDMs; experiment: Proteome Profiler phospho-RTK array, iBMDMs; assay type: cell-based, mouse; conditions: 3′3′-cGAMP or c-di-AMP 10 μg/ml, 16 hours, LDK378 10 μM
Description: The Proteome Profiler Mouse XL Cytokine Array Kit (#ARY028) and the Proteome Profiler Mouse Phospho-RTK Array Kit (#ARY014) are membrane-based sandwich immunoassays. Captured antibodies spotted in duplicate on nitrocellulose membranes bind to specific target proteins present in the sample (Step 1). Captured proteins are detected with biotinylated detection antibodies (Step 2) and then visualized using chemiluminescent detection reagents (Step 3). The signal produced is proportional to the amount of analyte bound. The intensities of bands were analyzed with Quick Spots Image Analysis Software (Western Vision Software, http://www.wvision.com/QuickSpots.html).

[4] = system: STING activation (IFNβ release) in pPMs; experiment: IFNβ release ELISA, primary peritoneal macrophages (pPMs); assay type: cell-based, mouse; conditions: 16 hours
Procedure: Mouse pPMs were isolated from C57BL/6J mice as previously described (69). In brief, eight-week-old female or male C57BL/6J mice were injected with 3.0% thioglycollate medium (2 mL/mouse) into the peritoneum. Three days after injection, mice were sacrificed and injected with 3 mL of 0.05% EDTA-PBS into the peritoneum to harvest peritoneal macrophages. Collected cells were centrifuged at 1000 rpm for 5 min at 4° C., and the cell pellet was washed with PBS and centrifuged again. The cell pellet was then suspended in Dulbecco's Modified Eagle Medium supplemented with 10% FBS and 1× Penicillin-Streptomycin and cultured in a culture dish.
(§1) Macrophages or monocytes were treated with 3′3′-cGAMP (10 μg/ml, Invitrogen) for 16 hours in the absence or presence of one compound (10 μM) from the Target-selective Inhibitory Library (#L3500, Selleck Chemicals). Commercially available enzyme-linked immunosorbent assay (ELISA) kits were used to measure the concentrations of mouse IFNβ (Thermo Fisher Scientific) or human IFNβ (Thermo Fisher Scientific) in culture medium according to the manufacturer's instructions.

[5] = system: STING activation (IFNβ release) in RAW264.7 cells; experiment: IFNβ release ELISA, RAW264.7 cells; assay type: cell-based, mouse; conditions: STING ligands 10 μg/ml, inhibitor 10 μM, 16 hours
Procedure: as §1

RAW264.7 cells = experiment: Cell viability assay (CCK-8), RAW264.7; assay type: cell-based, mouse; conditions: 3′3′-cGAMP 10 μg/ml, ALK inhibitor 10 μM, 16 hours
Procedure: Cells were seeded into 96-well plates and incubated with the indicated treatments. Subsequently, 100 μl fresh medium was added to cells containing 10 μl Cell Counting Kit-8 (CCK-8) solutions (Dojindo Laboratories) and incubated for 1 h (37° C., 5% CO2). Absorbance at 450 nm was measured using a microplate reader (Tecan).

IFNβ mRNA in iBMDMs = experiment: IFNβ mRNA Q-PCR, iBMDMs; assay type: cell-based, mouse; conditions: STING ligands 10 μg/ml, inhibitor 10 μM, 16 hours
Procedure: Total RNA was extracted using QIAGEN RNeasy Plus Kit according to the manufacturer's instructions. First-strand cDNA was synthesized from 1 μg of RNA using the iScript cDNA Synthesis kit (#1708890, Bio-Rad). Briefly, 20 μl reactions were prepared by combining 4 μl iScript Select reaction mix, 2 μl gene-specific enhancer solution, 1 μl reverse transcriptase, 1 μl gene-specific assay pool (20×, 2 μM), and 12 μl RNA diluted in RNase-free water. Quantitative real-time PCR was carried out using synthesized cDNA, primers, and SsoFast EvaGreen Supermix (#172-5204, Bio-Rad). The expression of target genes was calculated using the ddCt method relative to the expression of a house-keeping gene, β-actin. Data shown are the relative quantity (RQ), with RQ of the control cells set to one.

[6] = system: STING activation (IFNβ release) in J774A.1 cells; experiment: IFNβ release ELISA, J774A.1 cells; assay type: cell-based, mouse; conditions: STING ligands 10 μg/ml, inhibitor 10 μM, 16 hours
Procedure: as §1

[7] = molecular target: T1, interaction between ALK and EGFR (Mus musculus, UniProt P97793+Q01279); experiment: IP analysis of the interaction between ALK and EGFR, iBMDMs; assay type: cell-based; conditions: 3′3′-cGAMP or c-di-AMP 10 μg/ml, 16 hours, 10 μM
T1 construct: endogenous in cells; host or cells: iBMDMs
T1 sequence (P97793 19-1621): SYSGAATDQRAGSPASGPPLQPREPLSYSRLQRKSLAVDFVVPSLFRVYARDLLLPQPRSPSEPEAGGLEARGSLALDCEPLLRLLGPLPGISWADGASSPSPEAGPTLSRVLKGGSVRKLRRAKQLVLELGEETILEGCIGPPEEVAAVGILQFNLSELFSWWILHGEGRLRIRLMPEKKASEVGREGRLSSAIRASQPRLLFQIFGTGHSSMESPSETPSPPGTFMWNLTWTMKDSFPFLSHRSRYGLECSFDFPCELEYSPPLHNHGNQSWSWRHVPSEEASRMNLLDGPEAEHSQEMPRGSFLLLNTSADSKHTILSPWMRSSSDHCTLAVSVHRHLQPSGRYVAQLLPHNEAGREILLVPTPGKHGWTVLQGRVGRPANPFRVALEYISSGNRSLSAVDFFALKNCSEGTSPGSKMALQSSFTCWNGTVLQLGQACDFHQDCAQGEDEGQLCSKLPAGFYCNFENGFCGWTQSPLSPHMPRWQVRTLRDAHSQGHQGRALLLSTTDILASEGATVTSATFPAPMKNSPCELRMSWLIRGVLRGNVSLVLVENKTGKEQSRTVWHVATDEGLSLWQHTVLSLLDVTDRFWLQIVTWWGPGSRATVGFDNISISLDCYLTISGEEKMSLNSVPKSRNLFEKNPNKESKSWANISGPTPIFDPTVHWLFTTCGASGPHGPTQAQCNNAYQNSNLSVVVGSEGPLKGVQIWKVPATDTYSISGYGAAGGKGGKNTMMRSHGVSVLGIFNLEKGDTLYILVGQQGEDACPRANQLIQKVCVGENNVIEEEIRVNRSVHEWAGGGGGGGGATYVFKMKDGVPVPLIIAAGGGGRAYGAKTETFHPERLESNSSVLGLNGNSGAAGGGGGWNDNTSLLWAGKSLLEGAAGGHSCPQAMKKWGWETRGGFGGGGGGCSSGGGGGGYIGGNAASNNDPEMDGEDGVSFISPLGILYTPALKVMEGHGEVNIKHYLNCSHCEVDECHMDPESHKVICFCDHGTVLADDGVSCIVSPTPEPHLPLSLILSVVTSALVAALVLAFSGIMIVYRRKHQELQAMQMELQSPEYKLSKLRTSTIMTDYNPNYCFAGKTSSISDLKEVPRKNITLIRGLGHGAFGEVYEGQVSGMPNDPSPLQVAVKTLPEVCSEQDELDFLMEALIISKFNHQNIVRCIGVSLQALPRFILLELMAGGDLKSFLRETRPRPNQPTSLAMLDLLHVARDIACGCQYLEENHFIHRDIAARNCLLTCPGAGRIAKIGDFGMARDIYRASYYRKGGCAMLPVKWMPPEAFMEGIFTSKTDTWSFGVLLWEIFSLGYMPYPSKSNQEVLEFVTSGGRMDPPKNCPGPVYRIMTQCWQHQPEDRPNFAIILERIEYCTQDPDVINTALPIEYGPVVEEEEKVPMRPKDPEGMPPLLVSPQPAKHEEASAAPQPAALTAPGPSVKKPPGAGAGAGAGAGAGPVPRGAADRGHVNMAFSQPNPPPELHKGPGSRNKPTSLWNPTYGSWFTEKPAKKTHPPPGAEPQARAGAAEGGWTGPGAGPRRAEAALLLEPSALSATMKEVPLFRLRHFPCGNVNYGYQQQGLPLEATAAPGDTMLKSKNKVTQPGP
T1 sequence (Q01279 25-1210): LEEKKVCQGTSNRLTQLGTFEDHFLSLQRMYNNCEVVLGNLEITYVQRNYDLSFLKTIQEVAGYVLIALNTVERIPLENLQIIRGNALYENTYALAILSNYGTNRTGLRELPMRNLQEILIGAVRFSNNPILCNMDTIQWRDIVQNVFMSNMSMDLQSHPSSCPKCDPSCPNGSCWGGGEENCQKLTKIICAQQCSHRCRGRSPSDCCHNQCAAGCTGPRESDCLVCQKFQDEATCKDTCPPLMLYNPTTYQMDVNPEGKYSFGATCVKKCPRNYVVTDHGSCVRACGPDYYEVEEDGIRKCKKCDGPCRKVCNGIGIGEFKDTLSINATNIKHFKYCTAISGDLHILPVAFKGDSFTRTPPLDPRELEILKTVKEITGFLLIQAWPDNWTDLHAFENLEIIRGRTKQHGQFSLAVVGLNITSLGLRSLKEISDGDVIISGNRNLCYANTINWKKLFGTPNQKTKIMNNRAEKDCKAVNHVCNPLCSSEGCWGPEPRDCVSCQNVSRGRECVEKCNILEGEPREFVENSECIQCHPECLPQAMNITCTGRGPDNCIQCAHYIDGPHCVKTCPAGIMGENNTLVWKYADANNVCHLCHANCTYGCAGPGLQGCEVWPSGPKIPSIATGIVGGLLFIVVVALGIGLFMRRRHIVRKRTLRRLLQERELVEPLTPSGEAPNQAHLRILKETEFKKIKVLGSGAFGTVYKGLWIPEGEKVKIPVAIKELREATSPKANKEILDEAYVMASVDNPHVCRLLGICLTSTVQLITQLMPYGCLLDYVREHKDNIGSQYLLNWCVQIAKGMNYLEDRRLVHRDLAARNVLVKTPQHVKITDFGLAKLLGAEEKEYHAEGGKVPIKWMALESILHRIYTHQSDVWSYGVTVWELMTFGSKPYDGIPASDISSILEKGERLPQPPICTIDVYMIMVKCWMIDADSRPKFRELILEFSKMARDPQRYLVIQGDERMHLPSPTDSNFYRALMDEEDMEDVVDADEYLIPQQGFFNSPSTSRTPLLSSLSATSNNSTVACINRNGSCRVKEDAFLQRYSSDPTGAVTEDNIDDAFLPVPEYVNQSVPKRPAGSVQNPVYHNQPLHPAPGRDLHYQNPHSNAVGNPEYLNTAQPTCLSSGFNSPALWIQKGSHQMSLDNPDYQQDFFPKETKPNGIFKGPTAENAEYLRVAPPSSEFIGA
Procedure: Concentrations of proteins in the supernatant were determined by bicinchoninic acid assay. […] Following incubation, agarose/sepharose beads were washed extensively with PBS and proteins were eluted by boiling in 2× sodium dodecyl sulfate (SDS) sample buffer before SDS-PAGE electrophoresis.

Cc1cc(Nc2ncc(Cl)c(Nc3ccccc3S(=O)(=O)C(C)C)n2)c(OC(C)C)cc1C1CCNCC1 [LDK378, 5-chloro-N^2-(2-isopropoxy-5-methyl-4-(piperidin-4-yl)phenyl)-N^4-[2-(propane-2-sulfonyl)-phenyl]-pyrimidine-2,4-diamine]
3′3′-cGAMP-induced p-TBK1 ([1]; 3′3′-cGAMP 10 μg/ml, 10 μM, three to 16 hours): time-dependently reduced | STING ligand-induced phosphorylation of TBK1, IRF3, and p65 ([1]; 3′3′-cGAMP or c-di-AMP 10 μg/ml, 16 hours, 10 μM): diminished | LPS-induced phosphorylation of TBK1, IRF3, and p65 ([1]; LPS 1 μg/ml, LDK378 10 μM, three hours): inhibited | 3′3′-cGAMP-, c-di-AMP-, and DMXAA-induced p-IRF3 and p-p65 ([1]; ligand 10 μg/ml, 10 μM): inhibited | c-di-AMP- or DMXAA-induced p-TBK1 ([1]; ligand 10 μg/ml, 10 μM, 16 hours): inhibited | 3′3′-cGAMP- or c-di-AMP-induced phosphorylation of ALK, EGFR, and AKT ([1]; ligand 10 μg/ml, 16 hours, 10 μM): attenuated | fold increase in IFN-β release [2]: 0.08 fold | 3′3′-cGAMP-induced IFNβ release ([2]; iBMDMs, 3′3′-cGAMP 10 μg/ml, 16 hours, compound 10 μM): blocked; also recorded: diminished | LPS-induced IFNβ release ([2]; iBMDMs, LPS 1 μg/ml, LDK378 10 μM, three hours): inhibited | IFNβ release induced by STING ligands ([2]; iBMDMs, STING ligands 10 μg/ml, inhibitor 10 μM, 16 hours): inhibited | STING ligand-induced upregulated phosphorylation of various RTKs, including EGFR [3]: impaired | 3′3′-cGAMP-induced IFNβ release ([4]; mouse pPMs, 3′3′-cGAMP 10 μg/ml, compound 10 μM): confirmed their inhibitory properties | IFNβ release induced by STING ligands ([4]; pPMs, STING ligands 10 μg/ml, inhibitor 10 μM): inhibited | IFNβ release induced by STING ligands [5]: inhibited | cell viability (RAW264.7 cells): did not affect cell viability | STING ligand-induced IFNβ mRNA expression (IFNβ mRNA in iBMDMs): attenuation | IFNβ release induced by STING ligands [6]: inhibited | interaction between ALK and EGFR [7]: reduced
